Measurements published in patent US20210330736A1 (UNIVERSITEIT VAN AMSTERDAM, priority 2018, published 2021).

What was measured:
[1] = tested on: Th Ser40 phosphorylation in mouse striatum slices; assay: Th Ser40 phosphorylation in mouse striatal slices ex vivo (WES automated western); assay type: cell-based; details: mouse striatal slices in aCSF
Description: FIG. 13. Bay 60-7550 and Guanylin synergize to induce Ser40 phosphorylation Analysis of striatal slices treated with indicated compounds. WES data showing the phosphorylation of Th on Serine 40 is shown as well as total Th levels (a). From left to right are sequential striatal slices from rostral to caudal. Every slice is split into left and right hemisphere and either treated with compounds or vehicle. Left a positive and negative control is shown (Neuro2a cells transfected with Th or empty vector). The amount of Th Ser40 is corrected for the amount of total Th and shown in the bar graph (b). Each individual slice is indicated by a different symbol. Signficance is determined using a 2-tailed paired t-test. 2-tailed paired t-test: p=0.006.
Adult mice with an average of 5 weeks were sacrificed and the brain was quickly removed and sliced into coronal sections of 250 μm using a vibratome. Sections containing striatum were micro-dissected to remove non-striatal structures. Hemispheres were separated and one hemisphere was treated with compounds whereas the counter-hemisphere was treated with vehicle. Treatment of slices occurred in carbonized artificial cerebrospinal fluid (aCSF). After treatments, slices were lyzed in SDS containing sample buffer, sonicated, and heated at 95° C. Samples were analyzed on a WES automated western system (Protein Simple) according to manufacturer's instructions.
To investigate the effect of PDE2 inhibition in the mouse brain, an ex-vivo approach using brain slices was utilized. Coronal slices of mouse striatum were prepared and treated with BAY-60 7550 diluted in aCSF and subsequently analyzed by a WES automated western system. […] PDE2 is thus expressed in dopaminergic neurons and PDE2 protein and Th protein are present in the synaptic terminals of the neurons which project from the midbrain dopamine system to the striatum. To investigate the effects of GUCY2C ligands on Th activation, coronal slices of the mouse striatum were prepared, treated with guanylin and analyzed for Th Ser40 phosphorylation as was done for BAY-60-7550. […] The machinery for producing dopamine is thus present in the synaptic terminals where dopamine is released. […] Since both BAY 60-7550 and guanylin increased Th phosphorylation at 10μM, but not at 1 μM, we examined the effect of combining BAY 60-7750 and guanylin at 1μM.

[2] = molecular target: GUCY2C (Homo sapiens, UniProt P25092); assay: Th Ser40 phosphorylation in HEK cells co-transfected with Th and GUCY2C (western blot); assay type: cell-based; set-up: expressed in transfected cells; host or cells: HEK cells (ATCC), calcium-phosphate transfection, co-transfected with mouse Th; details: guanylin 10 μM, uroguanylin 1 μM, IBMX 100 μM, 1 hour
Chain of GUCY2C (P25092 24-1073): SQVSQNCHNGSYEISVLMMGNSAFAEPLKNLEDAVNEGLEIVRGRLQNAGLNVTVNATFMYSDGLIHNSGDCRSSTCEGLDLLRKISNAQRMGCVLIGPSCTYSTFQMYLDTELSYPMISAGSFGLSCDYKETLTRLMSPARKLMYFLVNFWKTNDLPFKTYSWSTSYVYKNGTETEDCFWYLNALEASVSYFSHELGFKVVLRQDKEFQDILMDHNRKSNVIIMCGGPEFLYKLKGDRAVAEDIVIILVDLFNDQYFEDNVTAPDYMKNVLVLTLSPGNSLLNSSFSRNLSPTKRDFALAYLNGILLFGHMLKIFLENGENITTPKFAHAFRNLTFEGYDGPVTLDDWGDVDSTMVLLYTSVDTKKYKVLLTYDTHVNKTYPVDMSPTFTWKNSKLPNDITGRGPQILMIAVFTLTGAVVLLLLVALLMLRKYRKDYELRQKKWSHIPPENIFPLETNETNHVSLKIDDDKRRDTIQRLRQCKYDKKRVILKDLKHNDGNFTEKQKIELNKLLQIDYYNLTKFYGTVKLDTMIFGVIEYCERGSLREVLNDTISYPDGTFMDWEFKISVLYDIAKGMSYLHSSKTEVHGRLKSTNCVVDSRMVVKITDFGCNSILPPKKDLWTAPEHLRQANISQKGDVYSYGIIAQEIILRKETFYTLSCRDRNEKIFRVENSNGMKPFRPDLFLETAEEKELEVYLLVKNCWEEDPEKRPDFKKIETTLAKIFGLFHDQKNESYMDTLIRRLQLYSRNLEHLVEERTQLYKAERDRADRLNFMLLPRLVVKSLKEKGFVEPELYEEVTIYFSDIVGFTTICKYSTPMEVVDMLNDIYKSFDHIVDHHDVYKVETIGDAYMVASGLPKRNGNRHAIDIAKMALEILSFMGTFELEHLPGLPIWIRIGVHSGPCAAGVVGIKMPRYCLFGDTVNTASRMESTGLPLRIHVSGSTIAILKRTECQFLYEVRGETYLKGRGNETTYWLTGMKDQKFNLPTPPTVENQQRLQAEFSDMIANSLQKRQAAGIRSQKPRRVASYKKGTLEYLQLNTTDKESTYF
Protocol: FIG. 4. GUCY2C activation increases Ser40 phosphorylation. Immunocytochemistry images (A) and western blotting analysis (B) of HEK cultures transfected with Th or Th+GUCY2C. (C) Co-transfected HEK cells were treated with guanylin (G) or uroguanylin (UroG) and changes in Ser40 phosphorylation were studied. The graph represents the statistical analysis (n=3 for Control, n=6 for Guanylin, n=9 for Uroguanylin; Mean±SEM). Unpaired Student's t-test (p-value: **<0.01).
FIG. 5. […] (A) HEK cultures were treated with guanylin, in the presence or absence of IBMX. […] Unpaired Student's t-test (p-values: ****<0.0001, **<0.01, *<0.05). (B) HEK cells were co-transfected with Th and either the wt GUCY2C or a gain-of-function mutant (R792S). Ser40 phosphorylation was studied following guanylin treatment (G). […] Unpaired Student's t-test (p-values: ***<0.001, **<0.01).
HEK cells were maintained in 100-mm Petri dishes and grown in DMEM medium supplemented with L-glutamine, penicillin-streptomycin (Pen&Strep) and 10% heat-inactivated fetal bovine serum (HIFBS). Growing conditions were 37° C. and 5% CO2. For every-other-day passages, HEK cultures were split at a 1:3 dilution. From Friday to Monday, the split proportion was doubled for all cell lines. For passaging, cultures were rinsed with PBS and incubated with 1 mL of trypsin during 5 minutes. Cells were resuspended in growth medium and finally split to the proper dilution. The experiments were performed in 12-well plates. For immunocytochemistry analysis, sterile 18-mm coverslips were added prior to the plating. 500 !μL of cell resuspension was seeded in each well. If experiments were to be performed 48 hours after the plate preparation, 1:5 was the seeding ratio for HEK cells. When the experiments took place 96 hours post-plating, 1:7 was the working dilution for HEK cells. Unless otherwise stated, HEK cultures were processed 96 hours post-plating.
HEK cells were transfected using the calcium-phosphate method. 12-well plates were refreshed with 500 μL of growth medium before transfection. […]

Compound	Ser40 phosphorylation in striatal slices ([1]; 1 μM)	Ser40 phosphorylation in striatal slices ([1]; 10 μM)	P-Ser40 levels / Ser40 phosphorylation (in words) [2]
COc1ccc(Cc2nn3c([C@@H](CCCc4ccccc4)[C@@H](C)O)nc(C)c3c(=O)[nH]2)cc1OC [BAY 60-7550]	did not result in a significant increase	increase in Ser40 phosphorylation	
guanylin: natural agonistic ligand of GUCY2C, 15 amino acid polypeptide; commercially available rat/mouse guanylin (Chemcruz) (PNTCEICAYAACTGC) [reference compound]	did not result in a significant increase	increase in Ser40 phosphorylation	increase P-Ser40 levels
